Results as given in ChEMBL document CHEMBL1201862, “PubChem BioAssay data set” (2004).
Calls of active or inactive are those of the source.

What was measured:
[1] = Luminescence Cell-Based Dose Response HTS to Identify Activators of Luciferase Translation or Activity in H4 […] Cells. [Related pubchem assays: 1829 (Project Summary), 1814 (Primary HTS)]; type: functional
[2] = Luminescence Cell-Based Dose Confirmation HTS to Identify Activators of 5'UTR Stem-Loop Driven Alpha-Synuclein mRNA Translation in H4 Neuroglioblastoma Cells. [Related pubchem assays: 1829 (Project Summary), 1814 (Primary HTS)]; type: functional
H4 = assay: Luminescence Cell-Based Dose Response HTS to Identify Activators of 5'UTR Stem-Loop Driven Prion Protein mRNA Translation in H4 Neuroglioblastoma Cells. [Related pubchem assays: 1829 (Project Summary), 1814 (Primary HTS)]; type: functional; conditions: Homo sapiens
Cytochrome P450 2C9 = Cytochrome P450 2C9 (Homo sapiens, UniProt P11712)
[3] = off-target signal loss in HeLa-CEM21 co-culture – HeLa F-luc CTL cells, cherry-picked, counter-screen for HIV-1 Env fusion inhibitor project, dose response (AID 652040); type: functional, cell-based;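 also: potency for signal decrease marking cytotoxic or nonspecific inhibition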
[4] = inhibitors of HIV Env-driven cell fusion, dose response, cherry-pick (AID 652057); type: functional, cell-based
[5] = ZM109 Env clade C HIV-1 fusion inhibitors, dose response, HeLa effector, CEM target cells, luciferase, cherry-pick (AID 652058); type: functional, cell-based
Nonstructural protein 1 = Nonstructural protein 1 (Influenza A virus, UniProt Q194T2); type: functional, Influenza A virus (A/California/07/2009(H1N1))
[6] = target: T1, Polyadenylate-binding protein 1 (Homo sapiens, UniProt P11940); assay: PABP1 MLLE–PAM2 binding inhibitor potency, dose response, biochemical, fluorescence polarization, FITC-PAM2 peptide (AID 602259); type: functional; conditions: read-out: IC50_Mean
[7] = target: T1, Polyadenylate-binding protein 1; assay: PABP1 MLLE–PAM2 interaction inhibitors, dose response, miRNA deadenylation inhibitor project, biochemical, fluorescence polarization, Cy5-PAM2 peptide, secondary (AID 602260); type: functional; conditions: read-out: IC50_Mean
[8] = microbe, parasite or virus in culture; type: functional; conditions: Mycobacterium tuberculosis
Cytochrome P450 3A4 = Cytochrome P450 3A4 (Homo sapiens, UniProt P08684);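 also: CYP3A4 tested as one member of a cytochrome P450 panel screen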
Cytochrome P450 2C19 = Cytochrome P450 2C19 (Homo sapiens, UniProt P33261); assay: Cytochrome panel assay with activity outcomes. Panel member name: p450-cyp2c19 Compounds with AC50 equal or less than 10 uM are considered active; type: functional; conditions: read-out: AC50
[9] = THP-1 cell cytotoxicity, dose response, cytotoxicity control for Vif-APOBEC3G degradation inhibitor project, THP-1 cells (AID 1117359); type: functional; conditions: Human immunodeficiency virus 1, THP-1
[10] = inhibitors of clade B AD8 Env fusion, dose response, cell-based, cherry-pick (AID 652062); type: functional;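 also: luciferase signal from cell-cell fusion driven by HIV-1 clade B AD8 Env; potency is for inhibitors of fusion seen as a drop in luminescence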
[11] = HEp-2 cell cytotoxicity, dose response, cytotoxicity control for RSV inhibitor project, HTS (AID 2410); type: functional; conditions: human respiratory syncytial virus

Sequence of Cytochrome P450 2C9 (P11712 whole entry, the tested form may be a part): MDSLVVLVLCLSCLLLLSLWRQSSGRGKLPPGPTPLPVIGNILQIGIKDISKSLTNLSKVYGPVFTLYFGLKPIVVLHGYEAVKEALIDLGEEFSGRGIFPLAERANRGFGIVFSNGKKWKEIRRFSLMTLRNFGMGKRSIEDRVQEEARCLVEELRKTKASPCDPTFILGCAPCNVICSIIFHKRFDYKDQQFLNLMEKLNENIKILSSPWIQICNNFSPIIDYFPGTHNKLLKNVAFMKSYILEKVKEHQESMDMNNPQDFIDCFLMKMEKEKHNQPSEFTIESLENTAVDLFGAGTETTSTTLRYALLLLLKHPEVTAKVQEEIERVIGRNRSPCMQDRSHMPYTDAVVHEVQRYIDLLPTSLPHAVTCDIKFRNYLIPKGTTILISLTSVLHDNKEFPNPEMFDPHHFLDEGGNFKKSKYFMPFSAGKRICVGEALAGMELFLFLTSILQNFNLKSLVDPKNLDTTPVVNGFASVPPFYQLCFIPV
T1 sequence (P11940 whole entry): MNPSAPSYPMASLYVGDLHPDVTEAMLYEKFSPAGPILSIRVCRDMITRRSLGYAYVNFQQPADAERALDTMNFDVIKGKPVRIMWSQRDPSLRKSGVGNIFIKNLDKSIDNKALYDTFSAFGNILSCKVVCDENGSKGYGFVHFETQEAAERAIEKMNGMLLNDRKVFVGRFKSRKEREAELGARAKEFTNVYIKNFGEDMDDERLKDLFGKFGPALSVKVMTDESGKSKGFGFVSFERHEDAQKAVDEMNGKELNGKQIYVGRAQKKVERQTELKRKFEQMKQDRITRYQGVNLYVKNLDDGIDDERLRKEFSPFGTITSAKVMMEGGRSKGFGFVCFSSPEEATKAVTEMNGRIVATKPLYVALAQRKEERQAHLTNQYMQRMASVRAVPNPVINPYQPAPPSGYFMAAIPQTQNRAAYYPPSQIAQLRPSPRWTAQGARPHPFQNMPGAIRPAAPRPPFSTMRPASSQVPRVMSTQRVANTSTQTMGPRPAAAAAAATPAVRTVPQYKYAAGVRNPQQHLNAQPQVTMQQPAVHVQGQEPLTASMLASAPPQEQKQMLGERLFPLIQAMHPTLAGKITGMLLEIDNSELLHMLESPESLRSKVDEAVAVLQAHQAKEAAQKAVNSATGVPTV
Sequence of Nonstructural protein 1 (Q194T2 whole entry): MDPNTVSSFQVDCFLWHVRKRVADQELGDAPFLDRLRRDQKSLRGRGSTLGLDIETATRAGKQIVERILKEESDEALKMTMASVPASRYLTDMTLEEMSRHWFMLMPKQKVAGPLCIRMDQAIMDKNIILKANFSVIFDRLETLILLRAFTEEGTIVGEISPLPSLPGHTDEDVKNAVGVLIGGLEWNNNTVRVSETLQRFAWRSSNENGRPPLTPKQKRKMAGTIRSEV
Sequence of Cytochrome P450 3A4 (P08684 whole entry): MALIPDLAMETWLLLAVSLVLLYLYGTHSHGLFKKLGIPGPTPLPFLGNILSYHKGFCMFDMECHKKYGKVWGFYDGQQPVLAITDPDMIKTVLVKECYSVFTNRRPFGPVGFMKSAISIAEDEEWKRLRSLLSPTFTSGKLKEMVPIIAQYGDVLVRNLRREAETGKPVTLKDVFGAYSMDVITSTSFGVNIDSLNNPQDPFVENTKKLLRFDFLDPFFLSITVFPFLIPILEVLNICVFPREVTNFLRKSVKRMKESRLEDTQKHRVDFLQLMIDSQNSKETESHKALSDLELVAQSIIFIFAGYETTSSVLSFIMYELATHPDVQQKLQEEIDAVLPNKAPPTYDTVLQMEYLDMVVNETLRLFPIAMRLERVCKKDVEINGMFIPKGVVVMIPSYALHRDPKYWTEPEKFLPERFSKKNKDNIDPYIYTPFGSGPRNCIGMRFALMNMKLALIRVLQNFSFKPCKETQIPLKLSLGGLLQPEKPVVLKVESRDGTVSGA
Sequence of Cytochrome P450 2C19 (P33261 whole entry): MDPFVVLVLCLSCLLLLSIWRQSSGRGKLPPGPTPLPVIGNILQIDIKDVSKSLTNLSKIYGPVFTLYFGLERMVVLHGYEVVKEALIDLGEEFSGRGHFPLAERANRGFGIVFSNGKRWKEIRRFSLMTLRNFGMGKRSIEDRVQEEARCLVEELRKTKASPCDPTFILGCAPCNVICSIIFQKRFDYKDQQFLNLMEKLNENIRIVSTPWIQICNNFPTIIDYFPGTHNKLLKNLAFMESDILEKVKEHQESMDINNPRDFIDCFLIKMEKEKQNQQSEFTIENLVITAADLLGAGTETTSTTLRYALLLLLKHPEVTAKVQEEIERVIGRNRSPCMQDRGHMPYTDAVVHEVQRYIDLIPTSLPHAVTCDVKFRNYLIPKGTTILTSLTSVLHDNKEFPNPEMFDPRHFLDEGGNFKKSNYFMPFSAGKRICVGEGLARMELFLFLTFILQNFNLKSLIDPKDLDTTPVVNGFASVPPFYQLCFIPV

## COc1cccc(-c2nc3n(n2)C(c2ccc4c(c2)OCO4)C(C(N)=O)=C(C)N3)c1 (stereo not drawn)
[1]
  EC50: 31.6 µM (active)
[2]
  EC50: 12.4 µM (active)
H4
  EC50: > 120 µM (not active)

## COc1ccc(CNc2ncncc2-c2cccnc2)c(OC)c1
Cytochrome P450 2C9
  AC50: inconclusive

## O=C1c2cccnc2C(Nc2ccc(S(=O)(=O)N3CCCCCC3)cc2)N1Cc1ccccc1 (stereo not drawn)
[3]
  AC50: 32.2 µM (active)
[4]
  AC50: 27.2 µM (active)
[5]
  AC50: 30.5 µM (active)

## NC(=O)NC(=O)CC1SC(NN=C2CSC(=O)N2)=NC1=O (stereo not drawn)
Nonstructural protein 1
  IC50: 7.54 µM (active)
[6]
  IC50: > 66 µM (inactive)
[7]
  IC50: > 66 µM (inactive)

## CCCCC(=O)NN/C=C1\C(=O)NC(=O)N(Cc2ccco2)C1=O
Nonstructural protein 1
  IC50: 13.7 µM (active)

## CCCCCCCCn1cnc2c(N)c(C)c(C)cc21
[8]
  CC50: > 40 µM (active)

## COc1ccc(NC(=O)C(=O)NCC(c2ccco2)N2CCc3ccccc3C2)cc1 (stereo not drawn)
[8]
  CC50: > 40 µM (active)

## CC(=O)c1c(C)[n+]([O-])c2cc(F)c(F)cc2[n+]1[O-]
[8]
  CC50: 35.4 µM (active)

## COc1ccc(-c2cc(=Nc3ccccc3)c3cc(C)ccc3o2)cc1.[O-][Cl+3]([O-])([O-])O
[1]
  EC50: 10.3 µM (active)
[2]
  EC50: 12.7 µM (active)
H4
  EC50: 9.82 µM (active)

## O=C(Nc1nc[nH]n1)c1ccc([N+](=O)[O-])cc1[N+](=O)[O-]
Cytochrome P450 3A4
  AC50: 14.1 µM (inconclusive)
Cytochrome P450 2C9
  AC50: inconclusive
Cytochrome P450 2C19
  AC50: 39.8 µM (inconclusive)

## Cc1ccc(S(=O)(=O)N(C)c2ccccc2C(=O)N2CCCC2)cc1
[9]
  CC50: > 40 µM (active)

## Sc1nnc(-c2cc[nH]n2)n1-c1ccccc1Cl
[1]
  EC50: 24.1 µM (active)
[2]
  EC50: 12.7 µM (active)
H4
  EC50: 19.3 µM (active)

## CC(C)c1cc(C(=O)Nc2cc(Br)ccc2O)no1
[1]
  EC50: > 120 µM (not active)
[2]
  EC50: 14 µM (active)
H4
  EC50: > 120 µM (not active)

## CCS(=O)(=O)N1Cc2ccccc2CC1C(=O)NC(C)C12CC3CC(CC(C3)C1)C2 (stereo not drawn)
[3]
  AC50: 4.99 µM (active)
[4]
  AC50: 3.24 µM (active)
[5]
  AC50: 3.91 µM (active)
[10]
  AC50: 3.56 µM (active)

## COc1ccc(CNC(=O)Cn2cccc2C(=O)c2ccccc2C)cc1
[1]
  EC50: 10.2 µM (active)
[2]
  EC50: 10.3 µM (active)
H4
  EC50: 16.8 µM (active)

## CCCn1c(C2CCCN2c2nc(-c3cccc(Br)c3)cs2)nc2ccccc21 (stereo not drawn)
[1]
  EC50: 32.7 µM (active)
[2]
  EC50: 5.7 µM (active)
H4
  EC50: > 120 µM (not active)
[11]
  CC50: 20.9 µM (active)
